Results taken from patent US20030041357A1, “Herbicide resistant plants” (priority 1996, published 2003).
Where “and” joins values, the source holds several entries; their conditions need not be identical. Identical values can stand only once.

Assays:
[1] = test system: wild type tobacco; assay: Kill curve of glyphosate in tissue culture; type: in vivo, Nicotiana tabaccum var Samsun; conditions: 0.005 mM in MS medium, two weeks
From the text: Selection on glyphosate A kill curve is constructed for growth of tobacco in tissue culture on glyphosate containing medium. This is done by inserting a stem segment ˜6 mm long and carrying a leaf node into MS medium containing a range of glyphosate isopropylamine concentrations. Four/five stem segments are used at each concentration.

[2] = test system: tobacco plants transformed with the Pseudomonas 4-HPPD gene; assay: Explant bleaching test on MS agar, 4-HPPD transformants (Example 1); type: in vivo, Nicotiana tabacum var Samsun; conditions: subset of ZA1296 resistant plants
[3] = test system: plants transformed with the Synechocystis sp. PCC6803 4-HPPD gene; assay: Explant bleaching test on MS agar, 4-HPPD transformants (Example 2); type: in vivo, Potato and tomato; conditions: subset of ZA1296 resistant plants
[4] = test system: Wild type plants; assay: Pre-em/post-em herbicide treatment (Table 1); type: in vivo, Tobacco; conditions: post-em 800 g/ha
[5] = test system: tobacco from cross DV3 #43B x ET4-208; assay: Glyphosate spray of DV3 #43B x ET4-208 seedlings; type: in vivo; conditions: 500 and 800 g/ha on seedlings tolerant to bleaching herbicides; scored 14 and 28 DAT
[6] = test system: wild type controls; assay: Growth on herbicide-containing tissue culture medium; type: in vivo, Tobacco; conditions: 0.01 and 0.05 mM glyphosate; 10 and 40 ppm alachlor
[7] = test system: primary transformants from pDV6-Bin; assay: as above; type: in vivo, Tobacco; conditions: a number of transgenics; 0.01 and 0.05 mM glyphosate; 10 and 40 ppm alachlor
[8] = test system: pDV6 plants expressing both glyphosate resistance genes and GST; assay: Pre-em/post-em herbicide treatment of DV6 plants (Table 1); design: species or system Tobacco; conditions: in vivo
[9] = test system: Wildtype tobacco; assay: Glyphosate spray test (Table 8 control); type: in vivo, Nicotiana tabaccum var Samsun
Experimental: (§1) A kill curve is established for the effect of glyphosate on wild type tobacco. Wild type tobacco growing in tissue culture is sub-cultured by taking stem segments and growing in fresh medium to generate 20 new plants. These are grown in tissue culture for one month before transfer to 3 inch pots in John Innes No 3 compost. They are initially covered in fleece to protect them. After uncovering they are allowed to acclimatise for four days before being sprayed. After spraying watering is only into the saucers i.e. no water is allowed to touch the leaves for five days. Scoring was done 8 days and 28 days after treatment.
(§2) Following construction of the glyphosate kill curve, a number of pDV1, 2 and 3 lines are spray tested with appropriate rates of glyphosate.

[10] = test system: DV6/HPPD tobacco; assay: Herbicide trial of DV6/HPPD cross (Example 10); type: in vivo; conditions: 800 g/ha on seedlings surviving 300 g/ha ZA1296
[11] = test system: pDV3 primary transformants (GOX/EPSPS tobacco); assay: Glyphosate spray test of pDV3 lines; type: in vivo, Nicotiana tabaccum var Samsun; design: scale not given here
Experimental: as §1, §2

[12] = no pre-em, third line (plant not given)

How did the Growth of explant [1] turn out when `CC(C)N.O=C(O)CNCP(=O)(O)O` [Glyphosate isopropylamine] was run?
The Growth of explant was “No growth in any organ”.

Which results are given for `CS(=O)(=O)c1cc(C(F)(F)F)ccc1C(=O)c1cnoc1C1CC1` [Isoxaflutole, 5-cyclopropyl-4-(2-methylsulphonyl-4-trifluoromethylbenzoyl)isoxazole]?
resistance of the herbicide resistant transgenic plants [2]: even more resistant; resistance of the herbicide resistant transgenic plants [3]: resistant

With `O=C(O)CNCP(=O)(O)O` [Glyphosate, glyphosate] as the molecule, how does the “% Phytotoxicity (mean, 21 DAT)” value ([4]; Wild type, no pre-em treatment) read?
Its value is 86.25%.

And the “replicate score for damage, replicate a” value [4, 12]?
Its value is 90.

And the “replicate score for damage, replicate b” value [4, 12]?
The value was 90.

And the “replicate score for damage, replicate c” value [4, 12]?
Its value is 90.

What about the “replicate score for damage, replicate d” value [4, 12] of the same molecule?
Its value is 75.

And the “resistance to post-emergence spray” value [5]?
Its value is “resistant”.

What about the “growth on tissue culture medium” value [6] of the same molecule?
Its value is “fail to”.

And the “growth on tissue culture medium” value [7]?
Its value is “grow successfully”.

And the “replicate score for damage, replicate a” value [8]?
Its value is 75 and 100.

What about the “replicate score for damage, replicate b” value [8] of the same molecule?
Its value is 0.

What about the “replicate score for damage, replicate c” value [8] of the same molecule?
The value was 0.

What about the “replicate score for damage, replicate d” value [8] of the same molecule?
Its value is 0 and 95.

What about the “dose/response to glyphosate spray (damage)” value (“dose/response” below) ([9]; 12.33 g/ha) of the same molecule?
Its value is 2.

And the “dose/response” value ([9]; 37 g/ha)?
Its value is 3.

And the “dose/response” value ([9]; 100 g/ha)?
Its value is 20.

What about the “dose/response” value ([9]; 300 g/ha) of the same molecule?
Its value is 80.

And the “dose/response” value ([9]; 1000 g/ha)?
The value was 93.

And the tolerance to spray [10]?
The tolerance to spray was “demonstrate tolerance”.

And the “dose/response” value ([11]; pDV3 #11, 100 g/ha)?
The value was 0.

And the “dose/response” value ([11]; pDV3 #11, 300 g/ha)?
The value was 0.

What about the “dose/response” value ([11]; pDV3 #11, 1000 g/ha) of the same molecule?
Its value is 25.

And the “dose/response” value ([11]; pDV3 #11, 3000 g/ha)?
The value was 70.

And the “dose/response” value ([11]; pDV3 #11, 9000 g/ha)?
Its value is 80.

And the “dose/response” value ([11]; pDV3 #14, 100 g/ha)?
The value was 7.

And the “dose/response” value ([11]; pDV3 #14, 300 g/ha)?
Its value is 22.

What about the “dose/response” value ([11]; pDV3 #14, 1000 g/ha) of the same molecule?
Its value is 13.

What about the “dose/response” value ([11]; pDV3 #14, 3000 g/ha) of the same molecule?
Its value is 33.

What about the “dose/response” value ([11]; pDV3 #14, 9000 g/ha) of the same molecule?
The value was 76.

And the “dose/response” value ([11]; pDV3 #19, 100 g/ha)?
Its value is 0.

What about the “dose/response” value ([11]; pDV3 #19, 300 g/ha) of the same molecule?
Its value is 0.

What about the “dose/response” value ([11]; pDV3 #19, 1000 g/ha) of the same molecule?
The value was 0.

And the “dose/response” value ([11]; pDV3 #19, 3000 g/ha)?
Its value is 35.

What about the “dose/response” value ([11]; pDV3 #19, 9000 g/ha) of the same molecule?
The value was 80.

And the “dose/response” value ([11]; pDV3 #21, 100 g/ha)?
Its value is 0.

And the “dose/response” value ([11]; pDV3 #21, 300 g/ha)?
The value was 5.

What about the “dose/response” value ([11]; pDV3 #21, 1000 g/ha) of the same molecule?
The value was 0.

What about the “dose/response” value ([11]; pDV3 #21, 3000 g/ha) of the same molecule?
Its value is 24.

And the “dose/response” value ([11]; pDV3 #21, 9000 g/ha)?
The value was 78.

What about the “dose/response” value ([11]; pDV3 #31, 100 g/ha) of the same molecule?
Its value is 12.

And the “dose/response” value ([11]; pDV3 #31, 300 g/ha)?
Its value is 0.

What about the “dose/response” value ([11]; pDV3 #31, 1000 g/ha) of the same molecule?
Its value is 4.

What about the “dose/response” value ([11]; pDV3 #31, 3000 g/ha) of the same molecule?
Its value is 26.

And the “dose/response” value ([11]; pDV3 #31, 9000 g/ha)?
The value was 78.

And the “dose/response” value ([11]; pDV3 #34, 100 g/ha)?
The value was 0.

And the “dose/response” value ([11]; pDV3 #34, 300 g/ha)?
The value was 0.

What about the “dose/response” value ([11]; pDV3 #34, 1000 g/ha) of the same molecule?
The value was 6.

And the “dose/response” value ([11]; pDV3 #34, 3000 g/ha)?
Its value is 30.

And the “dose/response” value ([11]; pDV3 #34, 9000 g/ha)?
The value was 63.

What about the “dose/response” value ([11]; pDV3 #36, 100 g/ha) of the same molecule?
The value was 0.

And the “dose/response” value ([11]; pDV3 #36, 300 g/ha)?
The value was 0.

What about the “dose/response” value ([11]; pDV3 #36, 1000 g/ha) of the same molecule?
The value was 0.

What about the “dose/response” value ([11]; pDV3 #36, 3000 g/ha) of the same molecule?
The value was 0.

And the “dose/response” value ([11]; pDV3 #36, 9000 g/ha)?
Its value is 0.

And the “dose/response” value ([11]; pDV3 #37, 100 g/ha)?
The value was 0.

And the “dose/response” value ([11]; pDV3 #37, 300 g/ha)?
The value was 0.

What about the “dose/response” value ([11]; pDV3 #37, 1000 g/ha) of the same molecule?
The value was 9.

And the “dose/response” value ([11]; pDV3 #37, 3000 g/ha)?
The value was 24.

What about the “dose/response” value ([11]; pDV3 #37, 9000 g/ha) of the same molecule?
The value was 72.

And the “dose/response” value ([11]; pDV3 #43, 100 g/ha)?
The value was 0.

And the “dose/response” value ([11]; pDV3 #43, 300 g/ha)?
Its value is 0.

And the “dose/response” value ([11]; pDV3 #43, 1000 g/ha)?
The value was 0.

And the “dose/response” value ([11]; pDV3 #43, 3000 g/ha)?
The value was 6.

What about the “dose/response” value ([11]; pDV3 #43, 9000 g/ha) of the same molecule?
Its value is 73.

And the “dose/response” value ([11]; pDV3 #44, 100 g/ha)?
The value was 0.

What about the “dose/response” value ([11]; pDV3 #44, 300 g/ha) of the same molecule?
The value was 40.

And the “dose/response” value ([11]; pDV3 #44, 1000 g/ha)?
Its value is 45.

And the “dose/response” value ([11]; pDV3 #44, 3000 g/ha)?
Its value is 78.

And the “dose/response” value ([11]; pDV3 #44, 9000 g/ha)?
Its value is 85.

What about the “dose/response” value ([11]; pDV3 #45, 100 g/ha) of the same molecule?
Its value is 0.

And the “dose/response” value ([11]; pDV3 #45, 300 g/ha)?
The value was 0.

And the “dose/response” value ([11]; pDV3 #45, 1000 g/ha)?
Its value is 3.

What about the “dose/response” value ([11]; pDV3 #45, 3000 g/ha) of the same molecule?
The value was 9.

What about the “dose/response” value ([11]; pDV3 #45, 9000 g/ha) of the same molecule?
The value was 70.

What about the “dose/response” value ([11]; pDV3 #47, 100 g/ha) of the same molecule?
Its value is 5.

And the “dose/response” value ([11]; pDV3 #47, 300 g/ha)?
The value was 0.

What about the “dose/response” value ([11]; pDV3 #47, 1000 g/ha) of the same molecule?
Its value is 0.

What about the “dose/response” value ([11]; pDV3 #47, 3000 g/ha) of the same molecule?
The value was 11.

And the “dose/response” value ([11]; pDV3 #47, 9000 g/ha)?
The value was 72.

What about the “dose/response” value ([11]; pDV3 #60, 100 g/ha) of the same molecule?
Its value is 0.

And the “dose/response” value ([11]; pDV3 #60, 300 g/ha)?
The value was 0.

And the “dose/response” value ([11]; pDV3 #60, 1000 g/ha)?
Its value is 0.

And the “dose/response” value ([11]; pDV3 #60, 3000 g/ha)?
Its value is 19.

What about the “dose/response” value ([11]; pDV3 #60, 9000 g/ha) of the same molecule?
The value was 63.

And the “dose/response” value ([11]; pDV3 #64, 100 g/ha)?
The value was 0.

What about the “dose/response” value ([11]; pDV3 #64, 300 g/ha) of the same molecule?
Its value is 5.

What about the “dose/response” value ([11]; pDV3 #64, 1000 g/ha) of the same molecule?
Its value is 0.

What about the “dose/response” value ([11]; pDV3 #64, 3000 g/ha) of the same molecule?
The value was 12.

What about the “dose/response” value ([11]; pDV3 #64, 9000 g/ha) of the same molecule?
Its value is 63.
